The results in this text go back to PubChem BioAssay (NCI).

Where “and” joins values, the source holds several entries; their conditions need not be identical. Equal entries are not always repeated.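 48-hour exposure; five concentrations; linearly interpolated endpoints. GI50: concentration for 50% inhibition of growth. TGI: concentration producing complete growth inhibition.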

Test systems include 786-0 renal; M14 melanoma; HCT-116 colon; IGROV1 ovarian; NCI-H522 lung; EKVX NSCLC; SN12C renal; SK-OV-3 ovarian; MCF7 breast; HOP-92 NSCLC.
Common to all, as to assay: NCI anticancer screen, dose series, 48 h

In the case of `C#CCOc1ccc2ncnc(Nc3ccc(NC(=O)C=C)cc3)c2c1`, the GI50 in the test with 786-0 renal is 11.9 µM; in the test on M14 melanoma, 34.4 µM; in the test with HCT-116 colon, 10.9 µM; in the test with IGROV1 ovarian, 49.8 µM; in the test on NCI-H522 lung, 11.8 µM; with EKVX NSCLC, over 100 µM. The GI50 was 44 µM in the test on SN12C renal, over 100 µM with SK-OV-3 ovarian, 2.98 µM in the test on MCF7 breast and 7.84 µM with HOP-92 NSCLC. Besides, the TGI in the test on 786-0 renal is 38.2 µM; with M14 melanoma, over 100 µM; in the test on HCT-116 colon, 35.9 µM; in the test with IGROV1 ovarian, over 100 µM; with NCI-H522 lung it was 39.7 µM; in the test on EKVX NSCLC it was over 100 µM. Also, the TGI with SN12C renal was over 100 µM; in the test with SK-OV-3 ovarian, over 100 µM; in the test on MCF7 breast it was over 100 µM; in the test on HOP-92 NSCLC, 52.7 µM.
As to `CSc1ccc2c(c1)C(N1CCN(C)CC1)Cc1ccccc1S2` (stereo not given), the GI50 was 1.77 µM in the test on 786-0 renal; 1.98 µM in the test on HCT-116 colon; 1.76 µM in the test with NCI-H522 lung; 2.08 µM in the test on EKVX NSCLC; 2.81 µM in the test on SN12C renal; 2.01 µM in the test with SK-OV-3 ovarian. The GI50 in the test on MCF7 breast was 1.79 µM; with HOP-92 NSCLC, 0.393 µM. Besides, the TGI in the test on 786-0 renal is 19.8 µM and 3.36 µM; in the test on M14 melanoma, 3.77 µM and 3.53 µM; with HCT-116 colon, 16 µM and 4.03 µM; with IGROV1 ovarian, 7.3 µM and 4.91 µM; with NCI-H522 lung it was 10.2 µM and 3.29 µM; in the test on EKVX NSCLC, 8.64 µM and 7.13 µM. For the same molecule, the TGI with SN12C renal was 18.9 µM and 10.8 µM; in the test with SK-OV-3 ovarian, 27.3 µM and 4.25 µM; in the test on MCF7 breast, 7.22 µM and 3.58 µM; in the test with HOP-92 NSCLC it was 7.77 µM and 2.62 µM.
Take `O=C(CC(Cl)=C(Cl)Cl)c1cccc(Cl)c1Cl`: the GI50 was 44.7 µM with 786-0 renal; over 100 µM with M14 melanoma; 42.6 µM in the test with HCT-116 colon; 46.3 µM in the test on IGROV1 ovarian; 36.9 µM in the test on NCI-H522 lung; 57.7 µM in the test with EKVX NSCLC. Moreover, the GI50 in the test on SN12C renal is 46.9 µM; with SK-OV-3 ovarian, over 100 µM; in the test on MCF7 breast, 66.8 µM; in the test with HOP-92 NSCLC, 61 µM. For the same molecule, the TGI in the test with 786-0 renal, in the test with M14 melanoma, with HCT-116 colon, in the test on IGROV1 ovarian, with NCI-H522 lung and with EKVX NSCLC was over 100 µM each time. The TGI with SN12C renal, in the test with SK-OV-3 ovarian, in the test with MCF7 breast and in the test with HOP-92 NSCLC was over 100 µM each time.
`N#CC1c2ccccc2C=CN1C(=O)N(c1ccccc1)c1ccccc1` (stereo not given): the GI50 with 786-0 renal was 4.32 µM; with M14 melanoma it was 2.19 µM; in the test with HCT-116 colon it was 2.05 µM; in the test with IGROV1 ovarian it was 1.76 µM; in the test on NCI-H522 lung it was 1.78 µM; with EKVX NSCLC it was 5.7 µM. Further, the GI50 with SN12C renal is 3 µM; in the test on SK-OV-3 ovarian, 16.5 µM; in the test on MCF7 breast it was 2.9 µM; in the test on HOP-92 NSCLC it was 2 µM. Also, the TGI in the test on 786-0 renal came out at 15.2 µM; in the test with M14 melanoma, 5.19 µM; with HCT-116 colon, 4.35 µM; in the test with IGROV1 ovarian, 3.66 µM; with NCI-H522 lung it was 3.33 µM; with EKVX NSCLC, 18.9 µM. Moreover, the TGI in the test on SN12C renal came out at 10.8 µM; with SK-OV-3 ovarian it was 31.3 µM; in the test with MCF7 breast it was 9.56 µM; in the test on HOP-92 NSCLC, 4.36 µM.
On to `O=C1c2ccccc2C(=O)c2c(OCCOCCO)cccc21`, for which the TGI with 786-0 renal, with M14 melanoma, with HCT-116 colon, in the test with IGROV1 ovarian, in the test on NCI-H522 lung and with EKVX NSCLC was over 100 µM in each case. Moreover, the TGI with SN12C renal was 8.08 µM; with SK-OV-3 ovarian it was over 100 µM; with MCF7 breast it was over 100 µM; in the test on HOP-92 NSCLC it was 96.9 µM.
Consider `O=C(Nc1nc2ccccc2s1)Nc1ccc([N+](=O)[O-])cc1Cl`, for which the GI50 in the test on 786-0 renal is 1.92 µM; with M14 melanoma it was 7.15 µM; in the test with HCT-116 colon it was 2.12 µM; with IGROV1 ovarian, 4.71 µM; with NCI-H522 lung it was 2.74 µM; with EKVX NSCLC, 11 µM. Also, the GI50 with SN12C renal was 4.36 µM; with SK-OV-3 ovarian it was 8.52 µM; in the test with MCF7 breast, 2.55 µM; in the test on HOP-92 NSCLC, 3.81 µM. For the same molecule, the TGI was 3.7 µM with 786-0 renal; 20.7 µM in the test with M14 melanoma; 4.54 µM in the test on HCT-116 colon; 10.4 µM in the test on IGROV1 ovarian; 10.2 µM in the test on NCI-H522 lung; 45.1 µM in the test on EKVX NSCLC. In addition, the TGI was 9.53 µM in the test on SN12C renal, 22.2 µM in the test with SK-OV-3 ovarian, 9.72 µM in the test on MCF7 breast and 11.7 µM with HOP-92 NSCLC.
Consider `CC[C@H](C)[C@H](NC(=O)[C@H]1CCCCN1C)C(=O)N(C)[C@H](C[C@@H](OC(C)=O)c1nc(C(=O)N[C@@H](Cc2ccccc2)C[C@H](C)C(=O)O)cs1)C(C)C`, for which the GI50 with 786-0 renal is 0.000943 µM and 0.00165 µM; in the test on M14 melanoma, 0.000337 µM and < 0.00165 µM; in the test with HCT-116 colon, 0.000404 µM and 0.00165 µM; with IGROV1 ovarian, 0.00604 µM and 0.00165 µM; in the test on NCI-H522 lung, 0.000347 µM and < 0.00165 µM; in the test with EKVX NSCLC it was 0.000979 µM and 0.00165 µM. Besides, the GI50 in the test on SN12C renal was 0.003 µM and 0.00165 µM; with SK-OV-3 ovarian, 0.000807 µM and 0.00165 µM; in the test on HOP-92 NSCLC, 7.24 µM. The TGI is over 16.5 µM in the test with 786-0 renal; under 0.00165 µM in the test on M14 melanoma; 0.017 µM with HCT-116 colon; over 16.5 µM in the test on IGROV1 ovarian; 0.0133 µM and < 0.00165 µM in the test with NCI-H522 lung; over 16.5 µM with EKVX NSCLC. The TGI with SN12C renal, with MCF7 breast and with HOP-92 NSCLC was over 16.5 µM in each case.
On to `CN(Cc1cnc2nc(N)nc(N)c2n1)c1ccc(C(=O)NC(CCC(=O)O)C(=O)O)cc1Br` (stereo not given), for which the GI50 in the test on 786-0 renal, in the test on M14 melanoma, with HCT-116 colon, with IGROV1 ovarian, in the test with NCI-H522 lung and with EKVX NSCLC was under 0.01 µM throughout. Moreover, the GI50 was under 0.01 µM in the test on SN12C renal, 0.047 µM with SK-OV-3 ovarian, under 0.01 µM in the test on MCF7 breast and 1.47 µM with HOP-92 NSCLC. Besides, the TGI is 5.95 µM in the test with M14 melanoma; 2.42 µM in the test with HCT-116 colon; 1.01 µM in the test with IGROV1 ovarian; 31.2 µM with NCI-H522 lung; 48.3 µM with EKVX NSCLC; over 100 µM in the test on SN12C renal. The TGI was over 100 µM in the test with SK-OV-3 ovarian, over 100 µM in the test on MCF7 breast and 23.1 µM in the test on HOP-92 NSCLC.
